Data taken from US4965280A, “Antifungal carbinols” (E. I. Du Pont de Nemours and Company, priority 1989, dated 1990).
Converted amounts (≈) assume the structure as drawn. Like-named read-outs stand apart in the source and are kept apart here.

Assays:
Plasmorpara viticola = experiment: Example I grape downy mildew; assay type: in vivo; conditions: read-out: disease control rating, Ex. I
Outline: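 Compounds were dissolved in acetone (6% of final volume) and suspended at 100 or 20 ppm in purified water with 250 ppm TREM 014 surfactant (polyhydric alcohol esters). Grape seedlings were sprayed with this suspension to run-off.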

[1] = system: Erysiphe graminis f. sp. tritici; experiment: Example D wheat powdery mildew; assay type: in vivo; conditions: Blumeria graminis, 144 h, read-out: disease control rating, Ex. D
Outline: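 Wheat seedlings receive a run-off foliar spray of compound suspended in purified water at 100 or 20 ppm. The carrier holds 250 ppm TREM 014 plus acetone amounting to 6% of final volume.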

Puccinia recondita = experiment: Example G wheat leaf rust; assay type: in vivo; conditions: read-out: disease control rating, Ex. G
Botrytis cinerea = experiment: Example C bean grey mold; assay type: in vivo; conditions: Botrytis cinerea, 24 h, read-out: disease control rating, Ex. C
Outline: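 Compound is first dissolved in acetone, the acetone making up 6% of the final volume. The solution is then suspended in purified water with 250 ppm of the polyhydric alcohol ester surfactant TREM 014 to give 100 or 20 ppm. Seedlings of broad bean receive this spray until liquid runs off.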

[2] = system: Fusarium oxysporum f. sp. cucumerinum; experiment: Example L cucumber wilt; assay type: in vivo; conditions: 336 h, 5 kg/ha, read-out: disease control rating, Ex. L
Experimental: […] Seeds and soil were then inoculated with a mixture of sand, cereal and mycelium of the fungus Fusarium oxysporum f. sp. cucumerinum, causal agent of cucumber wilt, and incubated in a growth chamber at 30° C. for 14 days. Disease ratings were then made.

Sclerotium rolfsii = experiment: Example M southern blight; assay type: in vivo; conditions: Agroathelia rolfsii, 336 h; 5 kg/ha; read-out: disease control rating, Ex. M
Experimental: […] Seeds and soil were then inoculated with a mixture of sand, cereal and mycelium of the fungus Sclerotium rolfsii, causal agent of sourthern blight, and incubated in a growth chamber at 30° C. for 14 days. Disease ratings were then made.

[3] = system: Candida albicans ATCC 11651; experiment: In vitro antifungal MIC, microtiter broth dilution; conditions: for MIC: Candida albicans, ATCC11651, 24 h, read-out: MIC values, C. albicans, 30°, 24 hours
Rhizoctonia solani [4] = experiment: Example K cotton blight; assay type: in vivo; conditions: 336 h, 5 kg/ha, read-out: disease control rating, Ex. K
Experimental: […] Seeds and soil were then inoculated with a mixture of sand, cereal and mycelium of the fungus Rhizoctonia solani, causal agent of cotton blight, and incubated in a growth chamber at 30° C. for 14 days. Disease ratings were then made.

Pyricularia oryzae = experiment: whole plant or invertebrate; assay type: in vivo; conditions: Pyricularia oryzae, 120 h; for pest or weed control at 100 ppm: read-out: disease control rating, Ex. E, 100 PPM; for pest or weed control at 20 ppm: read-out: disease control rating, Ex. E, 20 PPM
Rhizoctonia solani [5] = experiment: Example F rice sheath blight; assay type: in vivo; conditions: Rhizoctonia solani, 144 h, read-out: disease control rating, Ex. F
Outline: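 Rice seedlings receive a run-off spray of compound suspended at 100 or 20 ppm. The carrier is purified water containing 250 ppm of a polyhydric alcohol ester surfactant, with acetone making up 6% of the final volume.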

[6] = system: Cercosporidium personatum; experiment: Example B Peanut Late Leafspot; assay type: in vivo; conditions: Nothopassalora personata, read-out: disease control rating, Ex. B
Outline: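 Each compound is first taken up in acetone, which makes up 6% of the final spray volume. It is then suspended in purified water with 250 ppm TREM 014 at 100 or 20 ppm. Seedlings of peanut are sprayed until run-off.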

Phytophthora infestans = experiment: whole plant or invertebrate; assay type: in vivo; conditions: Phytophthora infestans, in Solanum lycopersicum, read-out: disease control rating, Ex. H, 100 PPM
Pythium aphanadermatum = experiment: Example J cucumber damping off; assay type: in vivo; conditions: Pythium, 336 h; 5 kg/ha; read-out: disease control rating, Ex. J
Outline: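 Seeds and soil were inoculated with a mix of sand, cereal and Pythium aphanadermatum mycelium, the fungus responsible for cucumber damping off. They were kept in a growth chamber at 30° C. for 14 days, and disease was then rated to assess control.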

Venturia inaequalis = experiment: Example A apple scab; assay type: in vivo; conditions: read-out: disease control rating, Ex. A
Outline: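 Apple seedlings receive a run-off spray of compound suspended at 100 or 20 ppm. The spray liquid is purified water holding 250 ppm TREM 014, a polyhydric alcohol ester surfactant, plus acetone at 6% of final volume as the solvent.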

[7] = system: Candida albicans ATCC 11651; experiment: In vivo systemic Candida infection in mice, primary assay; parameters: species or system Candida albicans; CF-1 female mice; conditions: Candida albicans, 150 mg/kg per day, read-out: % Survival
Outline: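 CF-1 female mice (20 g, 10 per group) were infected IV with 0.2 ml of 1×10^7/ml C. albicans ATCC 11651, then given test compound subcutaneously at 50 or 150 mg/kg/day at 1 and 6 h post-infection and once daily for three more days. Survival was followed for 21 days against infected untreated mice; ≥70% protection at 14 days was scored active.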

[8] = system: Aspergillus fumigatus ATCC 28214; experiment: In vitro antifungal MIC, microtiter broth dilution; conditions: Aspergillus fumigatus, ATCC28214, 24 h, read-out: MIC values, A. fumigatus, 30°, 24 hours
Experimental: In vitro activity (Table 5) is expressed in terms of the minimal inhibitory concentration (MIC) of the test compound which inhibits the growth of yeasts and fungi.
The target organisms, Candida albicans ATCC 11651 and Aspergillus fumigatus ATCC 28214 are standardized, [V. Bezjak, J. Clinical Micro., 21 509-512 (1984)], to a concentration of 10^7 organisms/ml and maintained at -70° until use. Test compounds are solubilized in dimethyl sulfoxide (DMSO) and diluted in Eagle's Minimum Essential Medium (EMEM) broth to achieve a final concentration of 200 μg/ml. Stock solutions of standard antifungal agents are stored at -70° and diluted in EMEM as required.
The in vitro assay utilizes a microtiter broth dilution technique [L. Polonelli and G. Morace, Mycopathologia, 86, 21-28 (1984)] and C. […] The appropriate wells are inoculated with the required organism (C. albicans at 1×10^4 organisms/ml and A. fumigatus at 5×10^5 organisms/ml) and the assay incubated at 30° for 24 hours.

SMILES	pest or weed control at 100 ppm (Plasmorpara viticola) [%]	pest or weed control at 100 ppm [1] [%]	pest or weed control at 100 ppm (Puccinia recondita) [%]	pest or weed control at 100 ppm (Botrytis cinerea) [%]	pest or weed control at 5000 g/ha [2] [%]	pest or weed control at 5000 g/ha (Sclerotium rolfsii) [%]	MIC [3] [µg/mL]	pest or weed control at 5000 g/ha (Rhizoctonia solani [4]) [%]	pest or weed control at 100 ppm (Pyricularia oryzae) [%]	pest or weed control at 100 ppm (Rhizoctonia solani [5]) [%]	pest or weed control at 100 ppm [6] [%]	pest or weed control at 100 ppm (Phytophthora infestans) [%]	pest or weed control at 5000 g/ha (Pythium aphanadermatum) [%]	pest or weed control at 100 ppm (Venturia inaequalis) [%]	responders at 150 mg/kg ([7]; ATCC11651, 168 h, day 7) [%]	responders at 150 mg/kg ([7]; ATCC11651, 336 h, day 14) [%]	responders at 150 mg/kg ([7]; ATCC11651, 504 h, day 21) [%]	MIC [8] [µg/mL]	other results
C=C(CO)C(O)(Cn1cncn1)c1ccc(Cl)cc1 (stereo not shown) [Example 447]	24	46	30	24	0	0	3.2 (≈ 11.4 µM)	0	46	0	0	0	0						
C=C(c1ccccc1)[C@](O)(Cn1cncn1)c1ccc(F)cc1 [Example 1276]	0	100	100	96	0		0.03 (≈ 0.097 µM)		1	97		0	0	100	100	70	50	1.6 (≈ 5.17 µM)	pest or weed control at 20 ppm (Venturia inaequalis): 93%; pest or weed control at 20 ppm [1]: 100%; pest or weed control at 20 ppm (Puccinia recondita): 100%; pest or weed control at 20 ppm (Botrytis cinerea): 86%; pest or weed control at 20 ppm (Pyricularia oryzae): 1%; pest or weed control at 20 ppm (Rhizoctonia solani [5]): 52%; pest or weed control at 20 ppm [6]: 100%
C=C(c1ccc(F)cc1)C(O)(Cn1cncn1)c1ccc(Cl)cc1Cl (stereo not shown) [Example 2]	99	98	100	93	0		≤ 0.4		95	100	100	0	0	62	100	100	80	1.6 (≈ 4.23 µM)	
C=C(c1ccccc1)C(O)(Cn1cncn1)c1ccc(Cl)s1 (stereo not shown) [Example 618]	0	89	100	98	80			80	0		100	0	0	100					
C=C(CO)C(O)(Cn1cncn1)c1ccc(F)cc1 (stereo not shown) [Example 450]	51	11	30	54	0	0	> 100	0	46	34	0	0	0						
N#CCS(=O)(=O)c1ncnn1CC(O)(c1ccccc1F)C1(c2ccc(F)cc2)CO1 (stereo not shown) [Example 1469]	89	77	100	81	70	0		80	2		84	24	0	68					
C=C(c1cccc(F)c1)C(O)(Cn1cncn1)c1ccc(F)cc1 (stereo not shown) [Example 15]	0	100	100	99	0		0.1 (≈ 0.305 µM)		1	93	100	26	0	100	100	90	60	50 (≈ 153 µM)	
C=C(c1ccc(F)cc1)C(O)(Cn1cncn1)C(C)C (stereo not shown) [Example 667]	10			4	0	0	6.3 (≈ 22.9 µM)	0	0	0		0			10	0	0	25 (≈ 90.8 µM)	pest or weed control at 20 ppm (Venturia inaequalis): 13%; pest or weed control at 20 ppm [1]: 39%; pest or weed control at 20 ppm (Puccinia recondita): 0%; pest or weed control at 20 ppm (Botrytis cinerea): 7%; pest or weed control at 20 ppm (Pyricularia oryzae): 0%; pest or weed control at 20 ppm (Rhizoctonia solani [5]): 0%; pest or weed control at 20 ppm [6]: 14%
C=C(c1ccc(F)cc1)C(O)(Cn1cncn1)c1ccc(F)cc1 (stereo not shown) [Example 1, 2,3-Bis(4-fluorophenyl)-1-(1H-1,2,4-triazol-1-yl)-3-buten-2-ol]	12	98	100	81	0				90	97	100	0	0	62	100	100	80	6.3 (≈ 19.2 µM)	MIC values, C. albicans ([3]; 30°, 24 hours): ≤ 0.01 µg/mL
